# Data as given in patent US20220135539A1, “BIARYL AMIDE COMPOUNDS, PREPARATION METHODS AND MEDICAL APPLICATIONS THEREOF” (Eternity Bioscience Inc., priority 2020, published 2022).
# Key:
# [1] = tested on: NCI-H358 (KRAS^G12C) non-small cell lung cancer cell; experiment: NCI-H358 Cancer Cell Growth Inhibition Assay (CellTiter-Glo); type: cell-based, human; details: for GI50: Homo sapiens, 72 h, NCI-H358 cells, incubated for 3 days, CellTiter-Glo
# Method: Activity of human NCI-H358 (KRAS^G12C) non-small cell lung cancer cell growth inhibition was assessed in vitro using CellTiter-Glo® Luminescent Cell Viability Assay. The assay was performed according to the kit instructions (Promega, cat #G7570). Briefly, NCI-H358 cells (ATCC, #CRL-5807) were seeded in 96-well plates at a density of 2,500 cells/well in and cells were cultured overnight in a humidified, 5% CO2 cell culture incubator at 37° C. 10 μL serial diluted compounds were added into each cell-culture well and incubated for 3 days. 100 μL CellTiter-Glo® Reagent was added into each well. The reactions were incubated at Room Temperature for 10 minutes, and luminescence signals were recorded on a Tecan Luminescence Plate Reader. Inhibition data were calculated by comparison to vehicle control wells for 0% inhibition and non-stimulated control wells for 100% inhibition. Dose response curves were then generated to determine the concentration required to suppress 50% of cellular growth response (GI50) as derived by non-linear regression analysis using GraphPad Prism.
# [2] = biological target: human recombinant cRAF (Homo sapiens, UniProt P04049); experiment: cRAF Inhibition Assay (TR-FRET); type: biochemical
# Method: (§1) Activity of human recombinant cRAF were assessed in vitro using time-resolved fluorescence resonance energy transfer (TR-FRET) assay. The assay was performed according to the kit instructions. Briefly, the cRAF enzyme (BPS Bioscience, cat #40008) was diluted to 0.027 ng/μL using the 1× kinase buffer A (Life Tech, cat #PV6135, 5× dilution with H2O); the Fluorescein labeled-MAP2K1 (Life Tech, Cat #PV4812) was diluted to 0.5 μM; ATP (Life Tech, cat #PV3227) was diluted to 20 μM; 2.54, of each diluted reagent was added to a 384-well plate (PerkinElmer, ProxiPlate-384 Plus, 6008280) and mixed together; 2.54, serial diluted compound were added into the mixture. 104, 400-fold diluted LanthaScreen Tb-pMAP2K1 (pSer217/221) antibody (Life Tech, cat #PV4817) was then added to each kinase reaction. The reactions were incubated at Room Temperature for 1 hour. The plate was then read on PHERAstar FSX using 340/490/520 module. Inhibition data were calculated by comparison to vehicle control wells for 0% inhibition and non-stimulated control wells for 100% inhibition. Dose response curves were then generated to determine the concentration required to suppress 50% of enzymatic response (IC50) as derived by non-linear regression analysis using GraphPad Prism.
# [3] = biological target: T1, human recombinant BRAF (Homo sapiens, UniProt P15056); experiment: BRAF^WT Inhibition Assay (TR-FRET); type: biochemical
# T1 construct: purchased BPS Bioscience 40065
# Method: as §1, with “BRAF” for “cRAF”, “#40065)” for “#40008)”
# [4] = biological target: T2, human recombinant V600E mutant BRAF (Homo sapiens, UniProt P15056, V600E); experiment: BRAF^V600E Inhibition Assay (TR-FRET); type: biochemical
# T2 construct: purchased BPS Bioscience 40533
# Method: Activity of human recombinant V600E mutant BRAF were assessed in vitro using time-resolved fluorescence resonance energy transfer (TR-FRET) assay. The assay was performed according to the kit instructions. Briefly, the V600E mutant BRAF enzyme (BPS Bioscience, cat #40533) was diluted to 0.027 ng/μL using the 1× kinase buffer A (Life Tech, cat #PV6135, 5× dilution with H2O); the Fluorescein labeled-MAP2K1 (Life Tech, Cat #PV4812) was diluted to 0.5 μM; ATP (Life Tech, cat #PV3227) was diluted to 20 μM; 2.5 μl of each diluted reagent was added to a 384-well (PerkinElmer, ProxiPlate-384 Plus, 6008280) plate and mixed together; 2.54, serial diluted compounds were added into the mixture. 104, 400-fold diluted LanthaScreen Tb-pMAP2K1 (pSer217/221) antibody (Life Tech, cat #PV4817) was then added to each kinase reaction. The reactions were incubated at Room Temperature for 1 hour. The plate was then read on PHERAstar FSX using 340/490/520 module. Inhibition data were calculated by comparison to vehicle control wells for 0% inhibition and non-stimulated control wells for 100% inhibition. Dose response curves were then generated to determine the concentration required to suppress 50% of enzymatic response (IC50) as derived by non-linear regression analysis using GraphPad Prism.
# T1 sequence (P15056 whole entry): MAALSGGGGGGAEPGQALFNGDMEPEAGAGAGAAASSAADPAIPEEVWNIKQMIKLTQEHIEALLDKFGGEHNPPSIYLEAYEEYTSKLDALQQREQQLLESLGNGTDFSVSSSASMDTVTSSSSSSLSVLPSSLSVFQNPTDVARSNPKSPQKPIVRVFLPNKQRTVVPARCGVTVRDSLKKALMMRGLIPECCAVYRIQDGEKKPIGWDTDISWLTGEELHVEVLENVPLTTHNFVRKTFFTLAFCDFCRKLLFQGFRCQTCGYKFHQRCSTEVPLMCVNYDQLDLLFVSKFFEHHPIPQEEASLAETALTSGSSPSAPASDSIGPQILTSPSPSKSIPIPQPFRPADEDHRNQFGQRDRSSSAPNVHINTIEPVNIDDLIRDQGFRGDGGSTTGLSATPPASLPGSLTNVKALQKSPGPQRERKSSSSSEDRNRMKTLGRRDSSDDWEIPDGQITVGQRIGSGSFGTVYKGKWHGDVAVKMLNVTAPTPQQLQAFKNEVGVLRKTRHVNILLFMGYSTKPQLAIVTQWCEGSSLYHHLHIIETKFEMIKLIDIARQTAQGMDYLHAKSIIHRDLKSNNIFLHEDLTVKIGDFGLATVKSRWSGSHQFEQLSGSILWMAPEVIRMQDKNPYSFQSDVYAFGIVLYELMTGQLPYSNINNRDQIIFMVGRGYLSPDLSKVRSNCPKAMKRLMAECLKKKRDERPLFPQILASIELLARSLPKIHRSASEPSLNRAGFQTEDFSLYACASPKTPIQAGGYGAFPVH
# T2 sequence (P15056 whole entry V600E): as the sequence (P15056 whole entry) above, with V600E counted along it
# human recombinant cRAF, sequence (P04049 whole entry Y340D/Y341D, form open): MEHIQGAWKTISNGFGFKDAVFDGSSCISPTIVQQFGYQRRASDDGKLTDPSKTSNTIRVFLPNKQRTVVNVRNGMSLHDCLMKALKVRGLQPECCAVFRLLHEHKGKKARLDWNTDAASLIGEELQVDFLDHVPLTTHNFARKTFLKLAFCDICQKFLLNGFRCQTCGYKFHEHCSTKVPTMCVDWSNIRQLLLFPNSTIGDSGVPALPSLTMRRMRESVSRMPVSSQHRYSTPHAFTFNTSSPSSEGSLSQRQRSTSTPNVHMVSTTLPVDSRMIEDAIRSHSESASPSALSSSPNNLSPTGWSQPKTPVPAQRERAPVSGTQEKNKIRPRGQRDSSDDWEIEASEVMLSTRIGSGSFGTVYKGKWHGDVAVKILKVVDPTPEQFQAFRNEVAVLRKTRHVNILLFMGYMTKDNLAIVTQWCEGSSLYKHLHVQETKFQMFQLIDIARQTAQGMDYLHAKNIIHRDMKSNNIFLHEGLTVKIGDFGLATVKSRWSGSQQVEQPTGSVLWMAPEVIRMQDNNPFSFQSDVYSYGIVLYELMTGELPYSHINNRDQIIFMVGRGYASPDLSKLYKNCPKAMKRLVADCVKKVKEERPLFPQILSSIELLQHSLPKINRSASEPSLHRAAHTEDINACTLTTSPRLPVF
SMILES,cell growth inhibition in H358 cancer line compared to LXH254 [1],GI50 [1] [nM],IC50 [2] [nM],IC50 [3] [nM],IC50 [4] [nM]
"Cc1ccc(NC(=O)c2ccc3c(c2)OCO3)cc1-c1cc(OCCO)nc(N2CCOCC2)c1 [Example 9, N-(3-(2-(2-hydroxyethoxy)-6-morpholinopyridin-4-yl)-4-methylphenyl)benzo[d][1,3]dioxole-5-carboxamide]",better or similar cell growth inhibition,1600,6.7,42,18
"Cc1ccc(NC(=O)c2cnc3c(c2)C(F)(F)CC3)cc1-c1cc(OCCO)nc(N2CCOCC2)c1 [Example 7, 5,5-difluoro-N-(3-(2-(2-hydroxyethoxy)-6-morpholinopyridin-4-yl)-4-methylphenyl)-6,7-dihydro-5H-cyclopenta[b]pyridine-3-carboxamide]",better or similar cell growth inhibition,2800,10,46,18
"Cc1ccc(NC(=O)c2ccc3c(c2)OCCO3)cc1-c1cc(OCCO)nc(N2CCOCC2)c1 [Example 13, N-(3-(2-(2-hydroxyethoxy)-6-morpholinopyridin-4-yl)-4-methylphenyl)-2,3-dihydrobenzo[b][1,4]dioxine-6-carboxamide]",better or similar cell growth inhibition,1200,4.7,31,13
"Cc1ccc(NC(=O)c2ccc3c(c2)CC3)cc1-c1cc(OCCO)nc(N2CCOCC2)c1 [Example 2, N-(3-(2-(2-hydroxyethoxy)-6-morpholinopyridin-4-yl)-4-methylphenyl)bicyclo[4.2.0]octa-1(6),2,4-triene-3-carboxamide]",–,–,7.9,38.5,18
"Cc1ccc(NC(=O)c2ccc3c(c2)C(F)(F)CC3)cc1-c1cc(OCCO)nc(N2CCOCC2)c1 [Example 3, 3,3-difluoro-N-(3-(2-(2-hydroxyethoxy)-6-morpholinopyridin-4-yl)-4-methylphenyl)-2,3-dihydro-1H-indene-5-carboxamide]",–,–,27,170,88
"Cc1ccc(NC(=O)c2cc3c(cn2)OC(F)(F)O3)cc1-c1cc(OCCO)nc(N2CCOCC2)c1 [Example 10, 2,2-difluoro-N-(3-(2-(2-hydroxyethoxy)-6-morpholinopyridin-4-yl)-4-methylphenyl)-[1,3]dioxolo[4,5-c]pyridine-6-carboxamide]",better or similar cell growth inhibition,85,25,95,55
"Cc1ccc(NC(=O)c2ccc3c(c2)C(F)(F)CO3)cc1-c1cc(OCCO)nc(N2CCOCC2)c1 [Example 4, 3,3-difluoro-N-(3-(2-(2-hydroxyethoxy)-6-morpholinopyridin-4-yl)-4-methylphenyl)-2,3-dihydrobenzofuran-5-carboxamide]",–,–,51,260,96
"Cc1ncc(NC(=O)c2ccc3c(c2)OC(F)(F)O3)cc1-c1cc(OCCO)nc(N2CCOCC2)c1 [Example 11, 2,2-difluoro-N-(2′-(2-hydroxyethoxy)-2-methyl-6′-morpholino-[3,4′-bipyridin]-5-yl)benzo[d][1,3]dioxole-5-carboxamide]",–,–,10,70,39
"Cc1ccc(NC(=O)c2ccc3c(c2)CCC3(F)F)cc1-c1cc(OCCO)nc(N2CCOCC2)c1 [Example 5, 1,1-difluoro-N-(3-(2-(2-hydroxyethoxy)-6-morpholinopyridin-4-yl)-4-methylphenyl)-2,3-dihydro-1H-indene-5-carboxamide]",–,–,39,92,65
"Cc1ccc(NC(=O)c2ccc3c(c2)OC(C)(C)O3)cc1-c1cc(OCCO)nc(N2CCOCC2)c1 [Example 8, N-(3-(2-(2-hydroxyethoxy)-6-morpholinopyridin-4-yl)-4-methylphenyl)-2,2-dimethylbenzo[d][1,3]dioxole-5-carboxamide]",better or similar cell growth inhibition,220,25,140,62
"Cc1ccc(NC(=O)c2cnc3c(c2)CCC3(F)F)cc1-c1cc(OCCO)nc(N2CCOCC2)c1 [Example 6, 7,7-difluoro-N-(3-(2-(2-hydroxyethoxy)-6-morpholinopyridin-4-yl)-4-methylphenyl)-6,7-dihydro-5H-cyclopenta[b]pyridine-3-carboxamide]",–,–,3.9,26,8.4
